Assay results taken from patent publication US20250214942A1, “INHIBITORS OF RECEPTOR INTERACTING PROTEIN KINASE I FOR THE TREATMENT OF DISEASE” (Board of Regents, The University of Texas System, priority 2019, published 2025).

Key:
[1] = test system: human monocytic cell line U937; assay: Human U937 cellular necroptosis assay (TNFalpha + z-VAD-FMK, Cell Titer-Glo viability); assay type: cell-based; settings: Homo sapiens, U-937, 22 h, U937 cells, 25 ng/mL human TNFalpha + 25 μM z-VAD-FMK, read-out: hU937 Avg IC50
In short: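 Readout is CellTiter-Glo 2.0 luminescence after 22 h at 37° C with compound, in cells triggered by human TNFalpha (25 ng/mL) and z-VAD-FMK (25 μM) in phenol red-free RPMI/10% FBS. Values are run-averaged IC50s from a four-parameter logistic curve.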

RIPK1 = RIPK1 (Homo sapiens (Human), UniProt Q13546); assay: ADP-Glo kinase assay (RIPK1 activity, conversion of ATP to ADP); assay type: biochemical; settings: for observed potency relative to the other enantiomer: enantiomers separated by SFC, assay not named; for IC50: 5 nM RIPK1, 50 μM ATP, 6 h reaction, read-out: RIPK1 Enzyme Avg IC50
In short: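 RIPK1 (5 nM final) was preincubated 10 min at rt with 1:3-diluted compounds in HEPES pH 7.5/MgCl2/DTT/BSA/CHAPS buffer. ATP (50 μM final) was then added for 6 h, and ADP formed was read by ADP-Glo luminescence. IC50 values came from four-parameter logistic fitting.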

Chain of RIPK1 (Q13546 1-327): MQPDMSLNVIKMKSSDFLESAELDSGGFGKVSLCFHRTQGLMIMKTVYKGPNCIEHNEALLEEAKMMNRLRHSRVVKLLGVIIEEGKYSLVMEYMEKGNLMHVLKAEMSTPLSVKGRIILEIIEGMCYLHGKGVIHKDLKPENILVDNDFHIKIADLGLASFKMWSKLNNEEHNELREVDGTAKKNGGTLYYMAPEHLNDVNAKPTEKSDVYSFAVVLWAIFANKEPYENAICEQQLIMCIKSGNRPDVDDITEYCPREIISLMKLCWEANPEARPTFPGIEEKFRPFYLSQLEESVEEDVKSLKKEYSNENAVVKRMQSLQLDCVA

observed potency relative to the other enantiomer (RIPK1)	IC50 (RIPK1) [µM]	SMILES	IC50 [1] [µM]
less potent isomer	–	Cc1cc(F)c([C@H]2CC=NN2C(=O)C23CC(COc4cnc(C#N)cn4)(C2)C3)cc1F [Example 196, (R)-5-((3-(5-(2,5-difluoro-4-methylphenyl)-4,5-dihydro-1H-pyrazole-1-carbonyl)bicyclo[1.1.1]pentan-1-yl)methoxy)pyrazine-2-carbonitrile]	0.631
more potent isomer	–	Cc1cc(F)c([C@@H]2CC=NN2C(=O)C23CC(COc4cnc(C#N)cn4)(C2)C3)cc1F [Example 197, (S)-5-((3-(5-(2,5-difluoro-4-methylphenyl)-4,5-dihydro-1H-pyrazole-1-carbonyl)bicyclo[1.1.1]pentan-1-yl)methoxy)pyrazine-2-carbonitrile]	0.00077
–	0.0083	N#Cc1cnc(OCC23CC(C(=O)N4N=CCC4c4cc(F)cc(F)c4)(C2)C3)cn1 (stereo not drawn) [Example 199, 5-((3-(5-(3,5-difluorophenyl)-4,5-dihydro-1H-pyrazole-1-carbonyl)bicyclo[1.1.1]pentan-1-yl)methoxy)pyrazine-2-carbonitrile]	0.0093
less potent isomer	–	N#Cc1cnc(OCC23CC(C(=O)N4N=CC[C@@H]4c4cc(F)cc(F)c4)(C2)C3)cn1 [Example 200, (R)-5-((3-(5-(3,5-difluorophenyl)-4,5-dihydro-1H-pyrazole-1-carbonyl)bicyclo[1.1.1]pentan-1-yl)methoxy)pyrazine-2-carbonitrile]	8.56
more potent isomer	–	N#Cc1cnc(OCC23CC(C(=O)N4N=CC[C@H]4c4cc(F)cc(F)c4)(C2)C3)cn1 [Example 201, (S)-5-((3-(5-(3,5-difluorophenyl)-4,5-dihydro-1H-pyrazole-1-carbonyl)bicyclo[1.1.1]pentan-1-yl)methoxy)pyrazine-2-carbonitrile]	0.0071
–	0.032	N#Cc1ccc(OCC23CC(C(=O)N4N=CCC4c4cc(F)cc(F)c4)(C2)C3)c(Cl)c1 (stereo not drawn) [Example 202, 3-Chloro-4-((3-(5-(3,5-difluorophenyl)-4,5-dihydro-1H-pyrazole-1-carbonyl)bicyclo[1.1.1]pentan-1-yl)methoxy)benzonitrile]	0.018
–	2.27	O=C(N1N=CCC1c1cc(F)cc(F)c1)C12CC(CO)(C1)C2 (stereo not drawn) [Example 208, (5-(3,5-Difluorophenyl)-4,5-dihydro-1H-pyrazol-1-yl)(3-(hydroxymethyl)bicyclo[1.1.1]pentan-1-yl)methanone]	4.3
–	0.0094	N#Cc1ccc2c(ccn2CC23CC(C(=O)N4N=CCC4c4cc(F)cc(F)c4)(C2)C3)n1 (stereo not drawn) [Example 210, 1-((3-(5-(3,5-difluorophenyl)-4,5-dihydro-1H-pyrazole-1-carbonyl)bicyclo[1.1.1]pentan-1-yl)methyl)-1H-pyrrolo[3,2-b]pyridine-5-carbonitrile]	0.01
–	0.011	N#Cc1cnc2c(ccn2CC23CC(C(=O)N4N=CCC4c4cc(F)cc(F)c4)(C2)C3)c1 (stereo not drawn) [Example 212, 1-((3-(5-(3,5-difluorophenyl)-4,5-dihydro-1H-pyrazole-1-carbonyl)bicyclo[1.1.1]pentan-1-yl)methyl)-1H-pyrrolo[2,3-b]pyridine-5-carbonitrile]	0.019
–	0.033	N#Cc1cc2cnn(CC34CC(C(=O)N5N=CCC5c5cc(F)cc(F)c5)(C3)C4)c2cn1 (stereo not drawn) [Example 213, 1-((3-(5-(3,5-difluorophenyl)-4,5-dihydro-1H-pyrazole-1-carbonyl)bicyclo[1.1.1]pentan-1-yl)methyl)-1H-pyrazolo[3,4-c]pyridine-5-carbonitrile]	0.063
–	0.025	N#Cc1cnc2cnn(CC34CC(C(=O)N5N=CCC5c5cc(F)cc(F)c5)(C3)C4)c2c1 (stereo not drawn) [Example 218, 1-((3-(5-(3,5-difluorophenyl)-4,5-dihydro-1H-pyrazole-1-carbonyl)bicyclo[1.1.1]pentan-1-yl)methyl)-1H-pyrazolo[4,3-b]pyridine-6-carbonitrile]	0.113
–	0.047	N#Cc1cc2cn(CC34CC(C(=O)N5N=CCC5c5cc(F)cc(F)c5)(C3)C4)nc2cn1 (stereo not drawn) [Example 219, 2-((3-(5-(3,5-difluorophenyl)-4,5-dihydro-1H-pyrazole-1-carbonyl)bicyclo[1.1.1]pentan-1-yl)methyl)-2H-pyrazolo[3,4-c]pyridine-5-carbonitrile]	0.292
–	0.22	N#Cc1cnc2cn(CC34CC(C(=O)N5N=CCC5c5cc(F)cc(F)c5)(C3)C4)nc2c1 (stereo not drawn) [Example 222, 2-((3-(5-(3,5-difluorophenyl)-4,5-dihydro-1H-pyrazole-1-carbonyl)bicyclo[1.1.1]pentan-1-yl)methyl)-2H-pyrazolo[4,3-b]pyridine-6-carbonitrile]	1.1
–	0.035	COc1cccc(C(F)C23CC(C(=O)N4N=CCC4c4cc(F)cc(F)c4)(C2)C3)c1 (stereo not drawn) [Example 226, (5-(3,5-difluorophenyl)-4,5-dihydro-1H-pyrazol-1-yl)(3-(fluoro(3-methoxyphenyl)-methyl)bicyclo[1.1.1]pentan-1-yl)methanone]	0.051
–	0.433	COc1ccc(C(F)C23CC(C(=O)N4N=CCC4c4cc(F)cc(F)c4)(C2)C3)cc1 (stereo not drawn) [Example 228, (5-(3,5-difluorophenyl)-4,5-dihydro-1H-pyrazol-1-yl)(3-(fluoro(4-methoxyphenyl)-methyl)bicyclo[1.1.1]pentan-1-yl)methanone]	2.41
–	0.093	O=C(N1N=CCC1c1cc(F)cc(F)c1)C12CC(C(O)c3cccc(Cl)c3)(C1)C2 (stereo not drawn) [Example 230, (3((3-chlorophenyl)-(hydroxy)methyl)bicyclo-[1.1.1]pentan-1-yl)(5-(3,5-difluorophenyl)-4,5-dihydro-1H-pyrazol-1-yl)methanone]	0.407
–	0.223	N#Cc1ccc2c(cnn2CC23CC(C(=O)N4CCC4c4ccc(Cl)cc4)(C2)C3)c1 (stereo not drawn) [Example 233, 1-((3-(2-(4-chlorophenyl)-azetidine-1-carbonyl)bicyclo-[1.1.1]pentan-1-yl)methyl)-1H-indazole-5-carbonitrile]	1.19
–	0.211	N#Cc1ccc2c(cnn2CC23CC(C(=O)N4CCC4c4ccc(F)cc4)(C2)C3)c1 (stereo not drawn) [Example 234, 1-((3-(2-(4-fluorophenyl)-azetidine-1-carbonyl)bicyclo-[1.1.1]pentan-1-yl)methyl)-1H-indazole-5-carbonitrile]	1.97
–	0.023	N#Cc1ccc2c(cnn2CC23CC(C(=O)N4CCC4c4ccccc4F)(C2)C3)c1 (stereo not drawn) [Example 248, 1-((3-(2-(2-fluorophenyl)-azetidine-1-carbonyl)bicyclo-[1.1.1]pentan-1-yl)methyl)-1H-indazole-5-carbonitrile]	0.186
–	0.043	N#Cc1ccc2c(cnn2CC23CC(C(=O)N4CCC4c4cccc(F)c4)(C2)C3)c1 (stereo not drawn) [Example 252, 1-((3-(2-(3-fluorophenyl)-azetidine-1-carbonyl)bicyclo-[1.1.1]pentan-1-yl)methyl)-1H-indazole-5-carbonitrile]	0.436
–	0.051	N#Cc1ccc2c(cnn2CC23CC(C(=O)N4N=CC[C@H]4c4cc(F)cc(F)c4)(C2)C3)c1 [Example 253, (S)-1-((3-(5-(3,5-difluoro-phenyl)-4,5-dihydro-1H-pyrazole-1-carbonyl)bicyclo-[1.1.1]pentan-1-yl)methyl)-1H-indazole-5-carbonitrile]	0.479
–	0.049	N#Cc1ccc2c(cnn2CC23CC(C(=O)N4CCC4c4cccs4)(C2)C3)c1 (stereo not drawn) [Example 255, 1-((3-(2-(thiophen-2-yl)-azetidine-1-carbonyl)bicyclo-[1.1.1]pentan-1-yl)methyl)-1H-indazole-5-carbonitrile]	0.55
–	1.01	N#Cc1ccc2c(cnn2CC23CC(C(=O)N4N=CCC4c4ccc5nccn5c4)(C2)C3)c1 (stereo not drawn) [Example 258, 1-((3-(5-(imidazo[1,2-a]-pyridin-6-yl)-4,5-dihydro-1H-pyrazole-1-carbonyl)bicyclo-[1.1.1]pentan-1-yl)methyl)-1H-indazole-5-carbonitrile]	3.83
–	0.528	N#Cc1ccc2c(cnn2CC23CC(C(=O)N4CCC4c4cccc(Cl)c4Cl)(C2)C3)c1 (stereo not drawn) [Example 260, 1-((3-(2-(2,3-dichlorophenyl)-azetidine-1-carbonyl)bicyclo-[1.1.1]pentan-1-yl)methyl)-1H-indazole-5-carbonitrile]	5.61
–	4.52	N#Cc1ccc2c(cnn2CC23CC(C(=O)NCc4cc(F)cc(F)c4)(C2)C3)c1 [Example 261, 3-((5-cyano-1H-indazol-1-yl)methyl)-N-(3,5-difluoro-benzyl)bicyclo[1.1.1]pentane-1-carboxamide]	9.47
–	0.019	N#Cc1ccc(OCC23CC(C(=O)N4N=CCC4c4cc(F)cc(F)c4)(C2)C3)nc1 (stereo not drawn) [Example 320, 6-((3-(5-(3,5-difluorophenyl)-4,5-dihydro-1H-pyrazole-1-carbonyl)bicyclo[1.1.1]pentan-1-yl)methoxy)nicotinonitrile]	0.03
–	0.018	O=C(N1N=CCC1c1cc(F)cc(F)c1)C12CC(COc3ncc(F)cc3F)(C1)C2 (stereo not drawn) [Example 321, (5-(3,5-difluorophenyl)-4,5-dihydro-1H-pyrazol-1-yl)(3-(((3,5-difluoropyridin-2-yl)-oxy)methyl)bicyclo[1.1.1]-pentan-1-yl)methanone]	0.045
